Eleven compounds from ChEMBL document CHEMBL6153122, “Antimycobacterial Activities of the Zanthoxylum leprieurii Metabolite Adubangoamide and Non-Natural Fagaramide Analogues” (2025) can be followed below.

What all share (assay type): functional
For experiment [1], the system named is Mycobacterium tuberculosis. Description: Antimycobacterial activity against drug-susceptible Mycobacterium tuberculosis H37Rv by microplate Alamar blue assay. In general terms: Alamar Blue is a resazurin reagent that responds to reducing activity.
Experiment [2] concerns Mycobacterium tuberculosis. Description: Potency index, ratio of trans-fagaramide MIC to test compound MIC for antimycobacterial activity against drug-susceptible Mycobacterium tuberculosis H37Rv.
In experiment [3] the test system is Mycobacterium tuberculosis. Description: Antimycobacterial activity against drug-susceptible Mycobacterium tuberculosis H37Rv.

Values after ≈ are worked out from the molar mass of the structure shown.

By MIC is commonly meant the least concentration at which growth counts as inhibited. High values mean a need for much substance, low ones inhibition by little substance.

In experiment [1], `O=C(/C=C/c1ccc2c(c1)OCO2)NCc1ccccc1` displayed an MIC of 167 µM (≈ 47 µg/mL).
As to `CN(C)c1ccc(CNC(=O)/C=C/c2ccc3c(c2)OCO3)cc1`, in experiment [1], 6 µM (≈ 1.95 µg/mL) was the least that counted as inhibitory (MIC). Further, the Ratio in experiment [2] worked out at 6.
For `CC(C)=CCOc1ccc(/C=C/C(=O)NCC(C)C)cc1`, in that order: 10 µM (≈ 2.87 µg/mL) and 3.
For `O=C(/C=C/c1ccc2c(c1)OCO2)NCc1ccc(N2CCC(C(F)(F)F)CC2)cc1`, in that order: 4.5 µM (≈ 1.95 µg/mL) and 6.
Compound `O=C(/C=C/c1ccc2c(c1)OCO2)NCc1ccccc1Cl` showed an MIC in experiment [1] of 100 µM (≈ 31.6 µg/mL).
Still for that read-out and setting: the figure for `O=C(/C=C/c1ccc2c(c1)OCO2)NCc1ccc(C(F)(F)F)cc1F` is 21 µM (≈ 7.71 µg/mL).
Take `O=C(/C=C/c1ccc2c(c1)OCO2)NCc1cc(F)cc(F)c1`: 6.1 µM (≈ 1.94 µg/mL) was the least that counted as inhibitory in experiment [1] (MIC). In addition, the Ratio in experiment [2] came to 6.
Regarding `O=C(/C=C/c1ccc2c(c1)OCO2)NCc1ccc(N2CCC(c3ccc(F)cc3)CC2)cc1`, in experiment [1], the lowest concentration to inhibit growth (MIC) was 17 µM (≈ 7.8 µg/mL).
Still for that read-out and setting: the figure for `COc1cccc(CNC(=O)/C=C/c2ccc3c(c2)OCO3)c1` is 200 µM (≈ 62.3 µg/mL).
For the compound `CC(C)CNC(=O)/C=C/c1ccc2c(c1)OCO2` [FOGARAMIDE], the lowest concentration to inhibit growth in experiment [3] (MIC) was 32 µM (≈ 7.91 µg/mL).
Regarding `CO[C@H]1/C=C/O[C@@]2(C)Oc3c(C)c(O)c4c(O)c(c(/C=N/N5CCN(C)CC5)c(O)c4c3C2=O)NC(=O)/C(C)=C\C=C\[C@H](C)[C@H](O)[C@@H](C)[C@@H](O)[C@@H](C)[C@H](OC(C)=O)[C@@H]1C` [RIFAMPIN], in experiment [1], it took 0.3 µM (≈ 0.247 µg/mL) to inhibit growth (MIC).
